Laboratory results taken from patent US20210169892A1, “MODULATORS OF THE INTEGRATED STRESS PATHWAY” (Calico Life Sciences LLC, priority 2017, published 2021).

system: HEK293T cells carrying the ATF4 luciferase reporter; assay: ATF4-Luc assay (in vitro model of vanishing white matter disease); assay type: cell-based; conditions: Homo sapiens, HEK-293T; HEK293T cells with ATF4 luciferase reporter, 1 μg/mL tunicamycin, 7 hours, One Glo luminescence
Method: In order to test exemplary compounds of the invention in a cellular context, a stable VWMD cell line was first constructed. The ATF4 reporter was prepared by fusing the human full-length ATF4 5′-UTR (NCBI Accession No. BC022088.2) in front of the firefly luciferase (FLuc) coding sequence lacking the initiator methionine as described in Sidrauski et al (eLife 2013). The construct was used to produce recombinant retroviruses using standard methods and the resulting viral supernatant was used to transduce HEK293T cells, which were then subsequently selected with puromycin to generate a stable cell line.
HEK293T cells carrying the ATF4 luciferase reporter were plated on polylysine coated 384-well plates (Greiner Bio-one) at 30,000 cells per well. Cells were treated the next day with 1 μg/mL tunicamycin and 200 nM of a compound of Formula (I) for 7 hours. Luminescence was measured using One Glo (Promega) as specified by the manufacturer. Cells were maintained in DMEM with L-glutamine supplemented with 10% heat-inactivated FBS (Gibco) and Antibiotic-Antimycotic solution (Gibco).
Table 2 below summarizes the EC50 data obtained using the ATF4-Luc assay for exemplary compounds of the invention.

Row | SMILES | EC50
1 | O=C(COc1ccc(Cl)c(F)c1)NC12CCC(NC(=O)C3Oc4ccccc4O3)(CC1)CC2 [Compound 100, N-{4-[2-(4-chloro-3-fluorophenoxy)acetamido]bicyclo[2.2.2]octan-1-yl}-2H-1,3-benzodioxole-2-carboxamide] | > 2000 nM
2 | Cc1oncc1C(=O)N1CC(C(=O)NC23CC(NC(=O)COc4ccc(Cl)c(F)c4)(C2)C3)Oc2ccc(Cl)cc21 (stereo not shown) [Compound 153, 6-chloro-N-{3-[2-(4-chloro-3-fluorophenoxy)acetamido]bicyclo[1.1.1]pentan-1-yl}-4-(5-methyl-1,2-oxazole-4-carbonyl)-3,4-dihydro-2H-1,4-benzoxazine-2-carboxamide] | 10 to 50 nM
3 | CC(C)(C)OC(=O)CN1CC(C(=O)NC23CCC(NC(=O)COc4ccc(Cl)c(F)c4)(CC2)[C@@H](O)C3)Oc2ccc(Cl)cc21 (stereo partly drawn) [Compound 185, tert-butyl [6-chloro-2-({(3S)-4-[2-(4-chloro-3-fluorophenoxy)acetamido]-3-hydroxybicyclo[2.2.2]octan-1-yl}carbamoyl)-2,3-dihydro-4H-1,4-benzoxazin-4-yl]acetate] | 50 to 250 nM
4 | O=C(O)CCN1CC(C(=O)NC23CC(NC(=O)COc4ccc(Cl)c(F)c4)(C2)C3)Oc2ccc(Cl)cc21 (stereo not shown) [Compound 170, 3-[6-chloro-2-({3-[2-(4-chloro-3-fluorophenoxy)acetamido]bicyclo[1.1.1]pentan-1-yl}carbamoyl)-2,3-dihydro-4H-1,4-benzoxazin-4-yl]propanoic acid] | 250 to 500 nM
5 | O=C(COc1ccc(Cl)c(F)c1)NC12CC(NC(=O)C3CN(C(=O)C4(C(F)(F)F)CC4)c4cc(Cl)ccc4O3)(C1)C2 (stereo not shown) [Compound 177, 6-chloro-N-{3-[2-(4-chloro-3-fluorophenoxy)acetamido]bicyclo[1.1.1]pentan-1-yl}-4-[1-(trifluoromethyl)cyclopropane-1-carbonyl]-3,4-dihydro-2H-1,4-benzoxazine-2-carboxamide] | < 10 nM
6 | CN1CC(C(=O)NC23CC(NC(=O)COc4ccc(Cl)c(F)c4)(C2)C3)Oc2ccc(Cl)cc21 (stereo not shown) [Compound 112, 6-chloro-N-{3-[2-(4-chloro-3-fluorophenoxy)acetamido]bicyclo[1.1.1]pentan-1-yl}-4-methyl-3,4-dihydro-2H-1,4-benzoxazine-2-carboxamide] | < 10 nM
7 | CCOCCS(=O)(=O)N1CC(C(=O)NC23CC(NC(=O)COc4ccc(Cl)c(F)c4)(C2)C3)Oc2ccc(Cl)cc21 (stereo not shown) [Compound 139, 6-chloro-N-{3-[2-(4-chloro-3-fluorophenoxy)acetamido]bicyclo[1.1.1]pentan-1-yl}-4-(2-ethoxyethanesulfonyl)-3,4-dihydro-2H-1,4-benzoxazine-2-carboxamide] | 50 to 250 nM
8 | O=C(CN1CCc2cc(Cl)ccc21)NC12CCC(NC(=O)COc3ccc(Cl)c(F)c3)(CC1)[C@@H](O)C2 [Compound 101, 2-(5-chloro-2,3-dihydro-1H-indol-1-yl)-N-{(3S)-4-[2-(4-chloro-3-fluorophenoxy)acetamido]-3-hydroxybicyclo[2.2.2]octan-1-yl}acetamide] | 500 to 2000 nM
9 | O=C(COc1ccc(Cl)c(F)c1)NC12CC(NC(=O)[C@H]3COc4ccccc4O3)(C1)C2 [Compound 124, (2R)—N-{3-[2-(4-chloro-3-fluorophenoxy)acetamido]bicyclo[1.1.1]pentan-1-yl}-2,3-dihydro-1,4-benzodioxine-2-carboxamide] | 10 to 50 nM
10 | O=C(COc1ccc(Cl)c(F)c1)NC12CC(NC(=O)C3CN(C(=O)CO)c4cc(Cl)ccc4O3)(C1)C2 (stereo not shown) [Compound 136, 6-chloro-N-{3-[2-(4-chloro-3-fluorophenoxy)acetamido]bicyclo[1.1.1]pentan-1-yl}-4-(hydroxyacetyl)-3,4-dihydro-2H-1,4-benzoxazine-2-carboxamide] | < 10 nM
11 | O=C(COc1ccc(Cl)c(F)c1)NC12CCC(NC(=O)C3CNc4cc(Cl)ccc4O3)(CC1)C[C@@H]2O (stereo partly drawn) [Compound 114, 6-chloro-N-{(3S)-4-[2-(4-chloro-3-fluorophenoxy)acetamido]-3-hydroxybicyclo[2.2.2]octan-1-yl}-3,4-dihydro-2H-1,4-benzoxazine-2-carboxamide] | < 10 nM
12 | O=C(COc1ccc(Cl)c(Cl)c1)NC12CCC(NC(=O)[C@H]3COc4cc(Cl)ccc4O3)(CC1)C[C@@H]2O [Compound 116, (2R)-6-chloro-N-{(3S)-4-[2-(3,4-dichlorophenoxy)acetamido]-3-hydroxybicyclo[2.2.2]octan-1-yl}-2,3-dihydro-1,4-benzodioxine-2-carboxamide] | < 10 nM
13 | O=C(COc1ccc(Cl)c(F)c1)NC12CCC(NC(=O)[C@@H]3CCc4cc(F)ccc4O3)(CC1)C[C@@H]2O [Compound 105, (2S)—N-{(3S)-4-[2-(4-chloro-3-fluorophenoxy)acetamido]-3-hydroxybicyclo[2.2.2]octan-1-yl}-6-fluoro-3,4-dihydro-2H-1-benzopyran-2-carboxamide] | < 10 nM
14 | NS(=O)(=O)c1ccc(S(=O)(=O)N2CC(C(=O)NC34CC(NC(=O)COc5ccc(Cl)c(F)c5)(C3)C4)Oc3ccc(Cl)cc32)cc1 (stereo not shown) [Compound 174, 6-chloro-N-{3-[2-(4-chloro-3-fluorophenoxy)acetamido]bicyclo[1.1.1]pentan-1-yl}-4-(4-sulfamoylbenzene-1-sulfonyl)-3,4-dihydro-2H-1,4-benzoxazine-2-carboxamide] | 50 to 250 nM
15 | O=C(COc1ccc(Cl)c(F)c1)NC12CC(NC(=O)C3CN(C(=O)c4ccncc4)c4cc(Cl)ccc4O3)(C1)C2 (stereo not shown) [Compound 169, 6-chloro-N-{3-[2-(4-chloro-3-fluorophenoxy)acetamido]bicyclo[1.1.1]pentan-1-yl}-4-(pyridine-4-carbonyl)-3,4-dihydro-2H-1,4-benzoxazine-2-carboxamide] | 250 to 500 nM
16 | O=C(O)CC1c2ccccc2CCN1C(=O)NC12CC(NC(=O)COc3ccc(Cl)c(F)c3)(C1)C2 (stereo not shown) [Compound 155, [2-({3-[2-(4-chloro-3-fluorophenoxy)acetamido]bicyclo[1.1.1]pentan-1-yl}carbamoyl)-1,2,3,4-tetrahydroisoquinolin-1-yl]acetic Acid] | > 2000 nM
17 | O=C(COc1ccc(Cl)c(F)c1)NC12CCC(NC(=O)C3CNc4ccccc4O3)(CC1)C[C@@H]2O (stereo partly drawn) [Compound 110, N-{(3S)-4-[2-(4-chloro-3-fluorophenoxy)acetamido]-3-hydroxybicyclo[2.2.2]octan-1-yl}-3,4-dihydro-2H-1,4-benzoxazine-2-carboxamide] | 10 to 50 nM
18 | CN1CC(C(=O)NC23CCC(NC(=O)COc4ccc(Cl)c(F)c4)(CC2)[C@@H](O)C3)Oc2ccccc21 (stereo partly drawn) [Compound 111, N-{(3S)-4-[2-(4-chloro-3-fluorophenoxy)acetamido]-3-hydroxybicyclo[2.2.2]octan-1-yl}-4-methyl-3,4-dihydro-2H-1,4-benzoxazine-2-carboxamide] | 50 to 250 nM
19 | COc1cccc(C(=O)N2CC(C(=O)NC34CC(NC(=O)COc5ccc(Cl)c(F)c5)(C3)C4)Oc3ccc(Cl)cc32)c1 (stereo not shown) [Compound 146, 6-chloro-N-{3-[2-(4-chloro-3-fluorophenoxy)acetamido]bicyclo[1.1.1]pentan-1-yl}-4-(3-methoxybenzoyl)-3,4-dihydro-2H-1,4-benzoxazine-2-carboxamide] | 500 to 2000 nM
20 | O=C(COc1ccc(Cl)c(F)c1)NC12CC(NC(=O)C3CN(C(=O)c4ccc(OC(F)(F)F)cc4)c4cc(Cl)ccc4O3)(C1)C2 (stereo not shown) [Compound 143, 6-chloro-N-{3-[2-(4-chloro-3-fluorophenoxy)acetamido]bicyclo[1.1.1]pentan-1-yl}-4-[4-(trifluoromethoxy)benzoyl]-3,4-dihydro-2H-1,4-benzoxazine-2-carboxamide] | 500 to 2000 nM
21 | O=C(COc1ccc(Cl)c(F)c1)NC12CCC(NC(=O)C3CCc4cc(F)ccc4O3)(CC1)[C@@H](O)C2 (stereo partly drawn) [Compound 200, N-{(2S)-4-[2-(4-chloro-3-fluorophenoxy)acetamido]-2-hydroxybicyclo[2.2.2]octan-1-yl}-6-fluoro-3,4-dihydro-2H-1-benzopyran-2-carboxamide] | < 10 nM
22 | Cc1ncc(S(=O)(=O)N2CC(C(=O)NC34CC(NC(=O)COc5ccc(Cl)c(F)c5)(C3)C4)Oc3ccc(Cl)cc32)n1C (stereo not shown) [Compound 137, 6-chloro-N-{3-[2-(4-chloro-3-fluorophenoxy)acetamido]bicyclo[1.1.1]pentan-1-yl}-4-(1,2-dimethyl-1H-imidazole-5-sulfonyl)-3,4-dihydro-2H-1,4-benzoxazine-2-carboxamide] | > 2000 nM
23 | O=C(COc1ccc(Cl)c(F)c1)NC12CC(NC(=O)C3CN(C(=O)c4cccc(C(F)(F)F)c4)c4cc(Cl)ccc4O3)(C1)C2 (stereo not shown) [Compound 160, 6-chloro-N-{3-[2-(4-chloro-3-fluorophenoxy)acetamido]bicyclo[1.1.1]pentan-1-yl}-4-[3-(trifluoromethyl)benzoyl]-3,4-dihydro-2H-1,4-benzoxazine-2-carboxamide] | > 2000 nM
24 | CN1C[C@@H](C(=O)NC23CCC(NC(=O)COc4ccc(Cl)c(F)c4)(CC2)[C@@H](O)C3)Oc2ccc(Cl)cc21 [Compound 107, 6-chloro-N-{(3S)-4-[2-(4-chloro-3-fluorophenoxy)acetamido]-3-hydroxybicyclo[2.2.2]octan-1-yl}-4-methyl-3,4-dihydro-2H-1,4-benzoxazine-2-carboxamide] | < 10 nM
25 | O=C(COc1ccc(Cl)c(F)c1)NC12CC(NC(=O)[C@@H]3CCc4cc(F)ccc4O3)(C1)C2 [Compound 121, (2S)—N-{3-[2-(4-chloro-3-fluorophenoxy)acetamido]bicyclo[1.1.1]pentan-1-yl}-6-fluoro-3,4-dihydro-2H-1-benzopyran-2-carboxamide] | < 10 nM
